Patent US20040009599A1, “Antisense modulation of cellular inhibitor of apoptosis-1 expression” (priority 1998, published 2004)
Strand notation (5' to 3'): a small letter for the sugar, then the base; units joined by * are phosphorothioate-linked, units joined directly phosphodiester-linked; [ ] holds rarer units or linkages, { } end groups; capitals alone tell only the bases. d = 2'-deoxy (DNA)

Tested on: human Cellular Inhibitor of Apoptosis-1 RNA
Assay: Inhibition of Cellular Inhibitor of Apoptosis-1 mRNA levels by quantitative real-time PCR after oligonucleotide treatment of cells
Type: cell-based
Conditions: for % Inhibition of Cellular Inhibitor of Apoptosis-1 mRNA levels: phosphorothioate oligodeoxynucleotides, oligonucleotide at final concentration of 150 nM with LIPOFECTIN, real-time PCR, averages from three experiments; for inhibition of Cellular Inhibitor of Apoptosis-1 expression: summary of Table 1, real-time PCR of mRNA levels
Experimental: Cells were harvested 16 hours after oligonucleotide treatment.
Poly(A)+ mRNA was isolated according to Miura et al., Clin. Chem., 1996, 42, 1758-1764. Other methods for poly(A)+ mRNA isolation are taught in, for example, Ausubel, F. M. et al., Current Protocols in Molecular Biology, Volume 1, pp. 4.5.1-4.5.3, John Wiley & Sons, Inc., 1993. […] 60 μL lysis buffer (10 mM Tris-HCl, pH 7.6, 1 mM EDTA, 0.5 M NaCl, 0.5% NP-40, 20 mM vanadyl-ribonucleoside complex) was added to each well, the plate was gently agitated and then incubated at room temperature for five minutes. 55 μL of lysate was transferred to Oligo d(T) coated 96-well plates (AGCT Inc., Irvine Calif.). Plates were incubated for 60 minutes at room temperature, washed 3 times with 200 μL of wash buffer (10 mM Tris-HCl pH 7.6, 1 mM EDTA, 0.3 M NaCl). After the final wash, the plate was blotted on paper towels to remove excess wash buffer and then air-dried for 5 minutes. 60 μL of elution buffer (5 mM Tris-HCl pH 7.6), preheated to 70° C. was added to each well, the plate was incubated on a 90° C. hot plate for 5 minutes, and the eluate was then transferred to a fresh 96-well plate.
Cellular Inhibitor of Apoptosis-1 probes and primers were designed to hybridize to the human Cellular Inhibitor of Apoptosis-1 sequence, using published sequence information (GenBank accession number U37547, incorporated herein as SEQ ID NO:1).
For Cellular Inhibitor of Apoptosis-1 the PCR primers were: […]
Target sites are indicated by nucleotide numbers, as given in the sequence source reference (Genbank accession no. U37547), to which the oligonucleotide binds. All compounds in Table 1 are oligodeoxynucleotides with phosphorothioate backbones (internucleoside linkages) throughout. […] Data are averages from three experiments. If present, “N.D.” indicates “no data”.

Row | Substance | % Inhibition of Cellular Inhibitor of Apoptosis-1 mRNA levels | inhibition of Cellular Inhibitor of Apoptosis-1 expression
1 | ISIS 23332: phosphorothioate oligodeoxynucleotide aaattacactccatagaa, 5′ UTR target site 4 (antisense dA*dA*dA*dT*dT*dA*dC*dA*dC*dT*dC*dC*dA*dT*dA*dG*dA*dA) | 0% | 
2 | ISIS 23333: phosphorothioate oligodeoxynucleotide aatcaactctactagcct, 5′ UTR target site 68 (antisense dA*dA*dT*dC*dA*dA*dC*dT*dC*dT*dA*dC*dT*dA*dG*dC*dC*dT) | 47% | at least 20%
3 | ISIS 23334: phosphorothioate oligodeoxynucleotide ctagtgttatcagaaacg, 5′ UTR target site 139 (antisense dC*dT*dA*dG*dT*dG*dT*dT*dA*dT*dC*dA*dG*dA*dA*dA*dC*dG) | 0% | 
4 | ISIS 23335: phosphorothioate oligodeoxynucleotide ttaaggactattcagcta, 5′ UTR target site 216 (antisense dT*dT*dA*dA*dG*dG*dA*dC*dT*dA*dT*dT*dC*dA*dG*dC*dT*dA) | 0% | 
5 | ISIS 23336: phosphorothioate oligodeoxynucleotide ttagttagccataaaatt, 5′ UTR target site 287 (antisense dT*dT*dA*dG*dT*dT*dA*dG*dC*dC*dA*dT*dA*dA*dA*dA*dT*dT) | 0% | 
6 | ISIS 23337: phosphorothioate oligodeoxynucleotide actttcttcctaactttg, 5′ UTR target site 352 (antisense dA*dC*dT*dT*dT*dC*dT*dT*dC*dC*dT*dA*dA*dC*dT*dT*dT*dG) | 0% | 
7 | ISIS 23338: phosphorothioate oligodeoxynucleotide ttggcttaaagttcaaaa, 5′ UTR target site 435 (antisense dT*dT*dG*dG*dC*dT*dT*dA*dA*dA*dG*dT*dT*dC*dA*dA*dA*dA) | 0% | 
8 | ISIS 23339: phosphorothioate oligodeoxynucleotide aagtcaatacccacaagc, 5′ UTR target site 497 (antisense dA*dA*dG*dT*dC*dA*dA*dT*dA*dC*dC*dC*dA*dC*dA*dA*dG*dC) | 0% | 
9 | ISIS 23340: phosphorothioate oligodeoxynucleotide aaaagctaagttcacaca, 5′ UTR target site 576 (antisense dA*dA*dA*dA*dG*dC*dT*dA*dA*dG*dT*dT*dC*dA*dC*dA*dC*dA) | 0% | 
10 | ISIS 23341: phosphorothioate oligodeoxynucleotide aagcactttaacatgaca, 5′ UTR target site 661 (antisense dA*dA*dG*dC*dA*dC*dT*dT*dT*dA*dA*dC*dA*dT*dG*dA*dC*dA) | 15% | 
11 | ISIS 23342: phosphorothioate oligodeoxynucleotide tatatgcaggcttctttc, 5′ UTR target site 684 (antisense dT*dA*dT*dA*dT*dG*dC*dA*dG*dG*dC*dT*dT*dC*dT*dT*dT*dC) | 23% | at least 20%
12 | ISIS 23343: phosphorothioate oligodeoxynucleotide ataacagaccaattactg, 5′ UTR target site 724 (antisense dA*dT*dA*dA*dC*dA*dG*dA*dC*dC*dA*dA*dT*dT*dA*dC*dT*dG) | 0% | 
13 | ISIS 23344: phosphorothioate oligodeoxynucleotide tgccttttatttatattt, 5′ UTR target site 764 (antisense dT*dG*dC*dC*dT*dT*dT*dT*dA*dT*dT*dT*dA*dT*dA*dT*dT*dT) | 0% | 
14 | ISIS 23345: phosphorothioate oligodeoxynucleotide aggtggatgcacttctga, 5′ UTR target site 858 (antisense dA*dG*dG*dT*dG*dG*dA*dT*dG*dC*dA*dC*dT*dT*dC*dT*dG*dA) | 0% | 
15 | ISIS 23346: phosphorothioate oligodeoxynucleotide ggtaacctaagtgctatt, 5′ UTR target site 915 (antisense dG*dG*dT*dA*dA*dC*dC*dT*dA*dA*dG*dT*dG*dC*dT*dA*dT*dT) | 0% | 
16 | ISIS 23347: phosphorothioate oligodeoxynucleotide tcaggtaggatgagtatc, 5′ UTR target site 994 (antisense dT*dC*dA*dG*dG*dT*dA*dG*dG*dA*dT*dG*dA*dG*dT*dA*dT*dC) | 11% | 
17 | ISIS 23348: phosphorothioate oligodeoxynucleotide tttcttcacatgaactaa, 5′ UTR target site 1097 (antisense dT*dT*dT*dC*dT*dT*dC*dA*dC*dA*dT*dG*dA*dA*dC*dT*dA*dA) | 0% | 
18 | ISIS 23349: phosphorothioate oligodeoxynucleotide acctgggaaaagtctttg, Coding target site 1178 (antisense dA*dC*dC*dT*dG*dG*dG*dA*dA*dA*dA*dG*dT*dC*dT*dT*dT*dG) | 0% | 
19 | ISIS 23350: phosphorothioate oligodeoxynucleotide caatctgacaagatcgtg, Coding target site 1234 (antisense dC*dA*dA*dT*dC*dT*dG*dA*dC*dA*dA*dG*dA*dT*dC*dG*dT*dG) | 0% | 
20 | ISIS 23351: phosphorothioate oligodeoxynucleotide tagagttcacaggaaaag, Coding target site 1285 (antisense dT*dA*dG*dA*dG*dT*dT*dC*dA*dC*dA*dG*dG*dA*dA*dA*dA*dG) | 0% | 
21 | ISIS 23352: phosphorothioate oligodeoxynucleotide ccagattctgaataaagc, Coding target site 1491 (antisense dC*dC*dA*dG*dA*dT*dT*dC*dT*dG*dA*dA*dT*dA*dA*dA*dG*dC) | 0% | 
22 | ISIS 23353: phosphorothioate oligodeoxynucleotide tttctcattggagacgta, Coding target site 1540 (antisense dT*dT*dT*dC*dT*dC*dA*dT*dT*dG*dG*dA*dG*dA*dC*dG*dT*dA) | 32% | at least 20%
23 | ISIS 23354: phosphorothioate oligodeoxynucleotide ccaaggtgggagataatg, Coding target site 1572 (antisense dC*dC*dA*dA*dG*dG*dT*dG*dG*dG*dA*dG*dA*dT*dA*dA*dT*dG) | 3% | 
24 | ISIS 23355: phosphorothioate oligodeoxynucleotide gagtaagaaccactgaac, Coding target site 1603 (antisense dG*dA*dG*dT*dA*dA*dG*dA*dA*dC*dC*dA*dC*dT*dG*dA*dA*dC) | 0% | 
25 | ISIS 23356: phosphorothioate oligodeoxynucleotide tagaattaagagggtttg, Coding target site 1632 (antisense dT*dA*dG*dA*dA*dT*dT*dA*dA*dG*dA*dG*dG*dG*dT*dT*dT*dG) | 0% | 
26 | ISIS 23357: phosphorothioate oligodeoxynucleotide tggtaggtaagaaatctg, Coding target site 1717 (antisense dT*dG*dG*dT*dA*dG*dG*dT*dA*dA*dG*dA*dA*dA*dT*dC*dT*dG) | 0% | 
27 | ISIS 23358: phosphorothioate oligodeoxynucleotide ttcccagttactgagctt, Coding target site 1835 (antisense dT*dT*dC*dC*dC*dA*dG*dT*dT*dA*dC*dT*dG*dA*dG*dC*dT*dT) | 78% | at least 20%
28 | ISIS 23359: phosphorothioate oligodeoxynucleotide ctcagatttgaaatgcta, Coding target site 1936 (antisense dC*dT*dC*dA*dG*dA*dT*dT*dT*dG*dA*dA*dA*dT*dG*dC*dT*dA) | 0% | 
29 | ISIS 23360: phosphorothioate oligodeoxynucleotide ttcccaacacctcaagcc, Coding target site 2093 (antisense dT*dT*dC*dC*dC*dA*dA*dC*dA*dC*dC*dT*dC*dA*dA*dG*dC*dC) | 55% | at least 20%
